The values below come from patent US7541364B2, “Pyridomorphinans, pyridazinomorphinans and use thereof” (priority 2003, dated 2009).

The target of series [1] is T1, δ receptor (mouse vas deferens) (Mus musculus, UniProt P32300). Nature of the series: Mouse vas deferens (MVD) smooth muscle bioassay. The following applies: for antagonist activity MVD (δ) Ke: DPDPE as agonist, 1 μM compound, 30 min preincubation. Details: from tissue; host or cells: mouse vas deferens (male ICR mice). The procedure:
(§1) Bioassays in Smooth Muscle Preparations. The functional activity profiles of selected ligands are also determined in the mouse vas deferens (MVD) and guinea pig ileum (GPI) smooth muscle preparations as described previously.
(§2) The agonist activity is determined by the ability of the compound to inhibit electrically stimulated contractions of the GPI and MVD. The GPI is primarily a μ receptor preparation, even though the ileum does also contain κ receptors. In the MVD, the opioid effects are predominantly mediated through δ receptors, but μ and κ receptors also exist in this tissue.
(§3) Tissues came from male ICR mice weighing 25-40 g and male Hartley guinea pigs weighing 250-500 g. The tissues are tied to gold chain with suture silk, suspended in 20 mL baths containing 37° C. oxygenated (95% O2, 5% CO2) Krebs bicarbonate solution (magnesium free for the MVD), and allowed to equilibrate for 15 min. The tissues are then stretched to optimal length previously determined to be 1 g tension (0.5 g for MVD) and allowed to equilibrate for 15 min. The tissues are stimulated transmurally between platinum wire electrodes at 0.1 Hz, 0.4 ms pulses (2-ms pulses for MVD), and supramaximal voltage. […] Tissues not producing typical results are not used. Experimental compounds were added to the baths in 14-60 μL volumes. Succeeding doses of agonist are added cumulatively to the bath at 3 min intervals to produce a concentration-response curve. The tissues are then washed extensively with fresh buffer until the original contraction height is reestablished. […] The tissues are then washed with fresh buffer for 30 min, and the agonist dose-response curve was repeated. Rightward shifts in the dose-response curves are calculated by dividing the antagonized dose-response curve IC50 value by the unantagonized IC50 value. IC50 values represent the mean of two to four tissues. IC50 estimates and their associated standard errors are determined by using a computerized nonlinear least-squares method. (MINSQ Least Squares Parameter Estimation, version 3.05; MicroMath Inc., 1999.)

Series [2] concerns the target T2, δ receptor (Cavia porcellus, UniProt A0A286XTF2). Put plainly: biochemical.
The target in series [3] is T3, μ receptor (Cavia porcellus, UniProt A0ACM8Q262). The following applies: read-out: antagonist activity apparent Ki (nM ± SD) μ; inhibition of DAMGO (10 μM) stimulated [35S]GTP-γ-S binding. (GTPγS resists hydrolysis and so accumulates on activated G proteins.)
T3 sequence (A0ACM8Q262 1-400): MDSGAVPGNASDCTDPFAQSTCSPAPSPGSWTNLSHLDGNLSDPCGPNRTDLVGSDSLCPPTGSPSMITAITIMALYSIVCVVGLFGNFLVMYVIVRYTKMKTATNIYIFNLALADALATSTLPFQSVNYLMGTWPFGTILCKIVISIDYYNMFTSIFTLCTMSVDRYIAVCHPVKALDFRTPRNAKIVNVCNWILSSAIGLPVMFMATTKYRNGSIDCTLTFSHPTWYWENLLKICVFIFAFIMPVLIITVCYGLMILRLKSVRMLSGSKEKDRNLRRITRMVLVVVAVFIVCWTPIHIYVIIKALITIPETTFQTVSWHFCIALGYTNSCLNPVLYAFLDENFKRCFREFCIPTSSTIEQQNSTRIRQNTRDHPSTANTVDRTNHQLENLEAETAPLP
In series [4] the target is T4, κ receptor (Cavia porcellus, UniProt P41144). The settings on record: read-out: antagonist activity apparent Ki (nM ± SD) κ.
T4 sequence (P41144 whole entry): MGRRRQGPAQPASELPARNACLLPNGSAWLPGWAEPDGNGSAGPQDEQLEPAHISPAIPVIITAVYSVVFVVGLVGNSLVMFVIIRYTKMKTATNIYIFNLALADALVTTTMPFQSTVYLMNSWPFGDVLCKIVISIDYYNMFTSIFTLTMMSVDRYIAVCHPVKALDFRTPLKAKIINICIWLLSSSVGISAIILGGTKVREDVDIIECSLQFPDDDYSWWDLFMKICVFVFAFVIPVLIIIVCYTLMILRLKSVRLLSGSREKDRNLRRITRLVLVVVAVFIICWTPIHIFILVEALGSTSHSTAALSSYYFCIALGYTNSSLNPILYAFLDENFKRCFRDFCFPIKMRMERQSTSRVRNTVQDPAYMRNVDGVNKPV
In series [5] the target is T3, μ receptor. Put plainly: biochemical. The settings on record: read-out: agonist activity Emax % μ.
The target of a further series is T5, opioid δ receptor (Rattus norvegicus, UniProt P33533).
T5 construct: Rat membranes are prepared each day using a partially thawed frozen rat brain; from tissue; host or cells: rat brain membranes
T5 sequence (P33533 whole entry): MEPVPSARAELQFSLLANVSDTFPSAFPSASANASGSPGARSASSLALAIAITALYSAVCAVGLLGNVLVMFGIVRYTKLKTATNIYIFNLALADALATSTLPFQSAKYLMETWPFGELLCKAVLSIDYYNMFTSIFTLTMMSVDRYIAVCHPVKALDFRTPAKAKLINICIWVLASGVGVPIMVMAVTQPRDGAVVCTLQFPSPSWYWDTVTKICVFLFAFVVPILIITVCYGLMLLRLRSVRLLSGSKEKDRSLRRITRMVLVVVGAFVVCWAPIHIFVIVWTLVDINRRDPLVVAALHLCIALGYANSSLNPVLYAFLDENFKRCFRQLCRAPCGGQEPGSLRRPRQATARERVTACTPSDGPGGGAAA
Put plainly: Opioid δ receptor binding, [3H]DADLE displacement in rat brain membranes.

Series [6] has as its target T6, opioid μ receptor (Rattus norvegicus, UniProt P33535). The following applies: for selectivity ratio μ/δ: ratio of binding Ki values; for Ki: read-out: Ki (nM) ± SEM μ, displacement of [3H]DAMGO (1.4-3.0 nM), rat brain membranes.
Series [7] has as its target T2, δ receptor. The settings on record: for maximum percentage inhibition of SNC-80 stimulated [35S]GTP-γ-S binding: δ receptors, partial inhibition with increasing concentrations.
A further series has as its system mice. Put plainly: 55° C. tail-flick antinociception test in mice. The settings on record: for naloxone sensitivity: naloxone 10 mg/kg ip, -10 min, yes = greater than 80% reduction in the antinociceptive effect. The procedure: Analgesic Testing and Assessment of Tolerance Development. The analgesic activity of selected ligands is tested in mice using the 55° C. tail-flick test as previously described. (See Wells et al., supra.) The test compounds are administered by the intracerbroventricular (icv) route. […] To determine whether the analgesic activity of the tested compounds is mediated through opioid receptors, the blockade of antinociceptive activity by pretreatment with naloxone is carried out. The analgesic activity was considered as naloxone sensitive if greater than 80% reduction in the antinociceptive response is observed.
Antinociceptive Studies. Male ICR mice (Harlan) are used for all evaluations. Mice are housed in a temperature and humidity controlled vivarium on a 12:12 h light:dark cycle with unlimited access to food and water prior to the formal procedures. […] The dihydrochloride salt of 7h is dissolved in water and injected in a volume of 5 μL. All other compounds are dissolved in 100% DMSO and injected in a volume of 5 μL. Antinociceptive assays are performed at various times after injection.
Percent antinociception is calculated using the formula: % MPE (maximal possible effect)=100×(test−control)/(cutoff−control) where control is the predrug observation, test is the postdrug observation, and cutoff is the maximal length of stimulus allowed (10 s for 55° C. tail-flick). Antinociceptive A50 values and 95% confidence intervals are determined using linear regression software (FlashCalc). Opioid activity of the test compounds are assessed by pretreating animals with naloxone (10 mg/kg ip, −10 min) followed by an icv injection of an approximate A90 dose of test compound. […] Antinociception is assessed in the 55° C. tail-flick test at 10, 20 and 30 min. A positive response to a fixed dose of naloxone is indicated when greater than 80% reduction in the antinociceptive effect of the agonist is observed.

For series [8], the target named is T7, opioid κ receptor (Cavia porcellus, UniProt P41144). The following applies: for selectivity ratio κ/δ: ratio of binding Ki values; for Ki: read-out: Ki (nM) ± SEM κ, displacement of [3H]U69,593 (1.2-[…]), guinea pig brain membranes. On the technique in general: Loss of bound radioactivity is the signal in a displacement assay; it reports binding, not function.
T7 sequence (P41144 whole entry): as the sequence (P41144 whole entry) above

Series [9] concerns the target T1, δ receptor (mouse vas deferens). Nature of the series: Mouse vas deferens (MVD) smooth muscle bioassay. The settings on record: inhibition of electrically stimulated contractions; read-out: agonist activity MVD (δ) IC50. How it is done:
as §1, §2, §3

The target in series [10] is T4, κ receptor. Put plainly: biochemical.
Series [11] concerns the target T7, opioid κ receptor. Nature of the series: biochemical.
Series [12] concerns the target T6, opioid μ receptor. Nature of the series: biochemical.
Setting [13] is: displacement of [3H]DADLE (1.3-2.0 nM), rat brain membranes, 100 nM DAMGO to block μ sites, read-out: Ki (nM) ± SEM δ.

Structures are written as SMILES. Where two headings read alike, the source gives them in different places.

T1 sequence (P32300 whole entry): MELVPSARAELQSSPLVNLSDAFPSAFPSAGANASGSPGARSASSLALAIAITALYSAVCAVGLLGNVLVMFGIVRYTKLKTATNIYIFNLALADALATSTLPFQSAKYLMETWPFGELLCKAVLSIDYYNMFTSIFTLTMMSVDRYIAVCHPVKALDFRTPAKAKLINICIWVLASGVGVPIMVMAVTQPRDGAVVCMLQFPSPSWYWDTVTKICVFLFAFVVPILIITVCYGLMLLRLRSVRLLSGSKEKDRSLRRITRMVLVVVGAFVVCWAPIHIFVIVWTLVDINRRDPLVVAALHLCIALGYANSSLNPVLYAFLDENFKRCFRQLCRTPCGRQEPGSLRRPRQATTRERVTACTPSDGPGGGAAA
T2 sequence (A0A286XTF2 1-366): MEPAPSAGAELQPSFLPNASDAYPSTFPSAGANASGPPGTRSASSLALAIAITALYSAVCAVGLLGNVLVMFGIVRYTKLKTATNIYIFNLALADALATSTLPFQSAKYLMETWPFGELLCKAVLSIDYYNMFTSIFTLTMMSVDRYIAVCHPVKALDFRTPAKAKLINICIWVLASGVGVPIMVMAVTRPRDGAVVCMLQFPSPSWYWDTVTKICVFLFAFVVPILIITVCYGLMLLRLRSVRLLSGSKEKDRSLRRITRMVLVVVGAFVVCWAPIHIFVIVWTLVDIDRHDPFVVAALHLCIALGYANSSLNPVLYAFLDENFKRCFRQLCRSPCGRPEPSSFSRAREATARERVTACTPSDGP
T6 sequence (P33535 whole entry): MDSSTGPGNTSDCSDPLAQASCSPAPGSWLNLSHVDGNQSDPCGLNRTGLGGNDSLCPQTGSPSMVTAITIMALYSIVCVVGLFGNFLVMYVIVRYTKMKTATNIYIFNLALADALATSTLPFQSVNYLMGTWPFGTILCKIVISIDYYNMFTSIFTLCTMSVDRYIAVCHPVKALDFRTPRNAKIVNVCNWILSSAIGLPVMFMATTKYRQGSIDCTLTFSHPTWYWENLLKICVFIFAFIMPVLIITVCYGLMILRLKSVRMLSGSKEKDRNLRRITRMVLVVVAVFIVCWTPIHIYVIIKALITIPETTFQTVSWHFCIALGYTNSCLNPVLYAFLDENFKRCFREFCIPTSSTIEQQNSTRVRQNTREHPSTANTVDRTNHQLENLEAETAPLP

What is called IC50 is the concentration needed to halve the response being measured. One may read the Emax as the maximal effect, on the per cent scale that the assay sets. By melting point is commonly meant the temperature, or range, at which the solid turns liquid. For `CN1CC[C@]23c4c5ccc(O)c4O[C@H]2c2ncc(-c4ccc(Br)cc4)cc2C[C@H]3[C@H]1C5` [7i, 5′-(4-Bromophenyl)-6,7-didehydro-4,5α-epoxy-3-hydroxy-17-methylpyrido[2′,3′:6,7]morphinan], the melting point was 186 to 188 °C. The same compound came in with a Kb in [1] of 20 ± 6.59 nM. This compound also yielded an IC50 at δ receptor [2] of 55 nM. Moreover, the Ki at μ receptor [3] is more than 1000 nM. The Ki at κ receptor [4] came to 265 ± 29 nM. In addition, the Emax on μ receptor [5] turned out to be 59 ± 3%. Besides, the Ki on opioid δ receptor (setting [13]) was 5 ± 0.6 nM. At opioid μ receptor [6], the “selectivity ratio μ/δ” value is listed as 40 and the Ki is 200 ± 11 nM. Moreover, on δ receptor [7], the “maximum percentage inhibition of SNC-80 stimulated [35S]GTP-γ-S binding” value is on record as 69±3%. The same compound displayed an A50 in the series with mice (icv, mouse tail-flick, at time of peak drug effect) of 47.2 nmol. Besides, the naloxone sensitivity entry with mice is given as “yes”. On opioid κ receptor [8], the “selectivity ratio κ/δ” value worked out at 18 and the Ki was determined as 91 ± 6 nM.

For `CN1CC[C@]23c4c5ccc(O)c4O[C@H]2c2ncc(-c4ccc(Cl)cc4Cl)cc2C[C@H]3[C@H]1C5` [7k, 5′-(2,4-Dichlorophenyl)-6,7-didehydro-4,5α-epoxy-3-hydroxy-17-methylpyrido[2′,3′:6,7]morphinan], the melting point lay within 198 to 200 °C. In addition, in [1], the Kb came out at 5.02 ± 1.56 nM and the “antagonist activity MVD (δ) Ke” value is reported as 5 nM. The Ki on δ receptor [2] stood at 1.08 ± 0.11 nM. The Ki on μ receptor [3] was more than 1000 nM. Besides, the Ki on κ receptor [4] is 308 ± 21 nM. In addition, the Emax on μ receptor [5] came out at 51 ± 5%. Moreover, the “enhancement in binding affinity at the δ receptor relative to 7h” value on opioid δ receptor is listed as 4 fold. In addition, the Ki on opioid δ receptor (setting [13]) worked out at 1.1 nM. On opioid μ receptor [6], the “selectivity ratio μ/δ” value turned out to be 88 and the Ki was found to be 97 ± 4 nM. On δ receptor [7], the “improvement in antagonist potency at the δ receptor relative to 7h” value was 10 fold. The “% nociception @ 60 nmol” value in the series with mice (icv, 60 nmol, mouse tail-flick) is reported as 40% @ 60 nmol^e. In addition, the “factor that prevented determining the A50 value” in the series with mice (icv, mouse tail-flick) is “lack of efficacy”. On opioid κ receptor [8], the “selectivity ratio κ/δ” value was 366 and the Ki was determined as 403 ± 9 nM.

For the compound `CN1CC[C@]23c4c5ccc(O)c4O[C@H]2c2ncc(-c4ccccc4)cc2C[C@@]3(O)[C@H]1C5` [7c, 6,7-Didehydro-3,14-dihydroxy-4,5α-epoxy-17-methyl-5′-phenylpyrido[2′,3′:6,7]morphinan], the melting point was in the range of 190 to 192 °C. The same compound came in with an IC50 on δ receptor [2] of 920 nM. In addition, on μ receptor [3], the Ki is more than 1000 nM. Moreover, at μ receptor [5], the maximal effect (Emax) worked out at 27%. Further, the Ki on opioid δ receptor (setting [13]) worked out at 2.9 ± 0.12 nM. Also, at opioid μ receptor [6], the “selectivity ratio μ/δ” value was 9 and the Ki worked out at 26 ± 0.96 nM. Moreover, the “maximum percentage inhibition of SNC-80 stimulated [35S]GTP-γ-S binding” value at δ receptor [7] was 61±3%. Besides, the IC50 in series [9] was 213 ± 55.8 nM. For the same compound, the “% nociception @ 100 nmol” value in the series with mice (icv, 100 nmol, mouse tail-flick) was found to be 64% @ 100 nmol. Further, the “factor that prevented determining the A50 value” with mice (icv, mouse tail-flick) is “lack of efficacy”. Moreover, the naloxone sensitivity entry in the series on mice was “no”. Moreover, at opioid κ receptor [8], the “selectivity ratio κ/δ” value came out at 124 and the Ki was found to be 360 ± 17 nM.

As for `Oc1ccc2c3c1O[C@H]1c4[nH]c5ccccc5c4C[C@@]4(O)C(C2)N(CC2CC2)CC[C@]314` [1, NTI, reference compound], the Ki on μ receptor [3] was determined as 3.21 ± 0.2 nM; on κ receptor [10] it was 8.85 ± 0.8 nM.

For the compound `COc1ccc2c3c1OC1c4ncc(-c5ccc(Br)cc5)cc4CC4(O)C(C2)N(C)CCC314` (stereo not drawn) [7p, 5′-(4-bromophenyl)-6,7-didehydro-4,5α-epoxy-14-hydroxy-3-methoxy-17-methyl-pyrido[2′,3′:6,7]morphinan], the melting point was more than 230 °C. This compound also returned a Ki at opioid κ receptor [11] of 7.37 ± 0.522 µM. Further, the Ki at opioid δ receptor amounted to 23 ± 1.3 nM. For the same compound, the “selectivity ratio μ/δ” value at opioid μ receptor [6] was 82. The compound also had a Ki on opioid μ receptor [12] of 1890 ± 72 nM. Moreover, the “selectivity ratio κ/δ” value on opioid κ receptor [8] turned out to be 320.

Take `CN1CC[C@]23c4c5ccc(O)c4O[C@H]2c2ncc(-c4ccc(Cl)cc4)cc2C[C@@]3(O)[C@H]1C5` [7d, 5′-(4-Chlorophenyl)-6,7-didehydro-3,14-dihydroxy-4,5α-epoxy-17-methylpyrido[2′,3′:6,7]morphinan]: the melting point was in the range of 196 to 198 °C. Further, in series [1], the Kb is 38.2 ± 14.7 nM and the “antagonist activity MVD (δ) Ke” value was 38 nM. The compound also showed a Ki at δ receptor [2] of 17 nM. Besides, at μ receptor [3], the Ki is more than 1000 nM. On opioid δ receptor, the Ki was 3.96 ± 0.23 nM. This compound also yielded a Ki on κ receptor [10] of 767 ± 54 nM. Besides, on opioid μ receptor [6], the “selectivity ratio μ/δ” value worked out at 58 and the Ki stood at 230 ± 10 nM. Moreover, in the series with mice (icv, 300 nmol, mouse tail-flick), the “% nociception @ 300 nmol” value is 43% @ 300 nmol. The “factor that prevented determining the A50 value” in the series on mice (icv, mouse tail-flick) was “lack of potency”. Also, the naloxone sensitivity result in the series with mice is “partial”. Further, on opioid κ receptor [8], the “selectivity ratio κ/δ” value came out at 118 and the Ki is 468 ± 17 nM.

Compound `CN1CCC23c4c5ccc(O)c4OC2c2ncc(-c4ccc(Br)cc4)cc2CC3(O)C1C5` (stereo not drawn) [7e, 5′-(4-Bromophenyl)-6,7-didehydro-3,14-dihydroxy-4,5α-epoxy-17-methylpyrido[2′,3′:6,7]morphinan] yielded a melting point of 196 to 198 °C. The compound further came in with a Ki at opioid κ receptor [11] of 0.432 ± 0.018 µM. The same compound showed a Ki on opioid δ receptor of 4 ± 0.3 nM. Besides, the “selectivity ratio μ/δ” value on opioid μ receptor [6] is on record as 49. At opioid μ receptor [12], this compound gave a Ki of 196 ± 4 nM. The “selectivity ratio κ/δ” value at opioid κ receptor [8] is reported as 108.

The compound `COc1ccc2c3c1OC1c4ncc(-c5ccccc5)cc4CC4(O)C(C2)N(C)CCC314` (stereo not drawn) [7n, 6,7-didehydro-4,5α-epoxy-14-hydroxy-3-methoxy-17-methyl-5′-phenylpyrido[2′,3′:6,7]-morphinan] showed a melting point of more than 250 °C. On opioid κ receptor [11], this compound had a Ki of more than 10 µM. The Ki on opioid δ receptor is 34 ± 0.63 nM. Moreover, on opioid μ receptor [6], the “selectivity ratio μ/δ” value is 26. This compound had a Ki on opioid μ receptor [12] of 894 ± 19 nM. The “selectivity ratio κ/δ” value on opioid κ receptor [8] was more than 294.
